Laboratory results as given in patent US9662341B2, “Multifunctional topical formulation for the treatment of acne vulgaris and other skin conditions” (Kantian Sciences Corporation, priority 2011, dated 2017).
Like-named read-outs stand apart in the source and are kept apart here.

Tests used:
[1] = Percentage of mandelic acid in acid and salt forms at varying pH values; type: physicochemical
From the text: The same consideration of activity vs. acid:salt forms applies to mandelic acid, where the antimicrobial activity of an aqueous solution containing this material is strongly dependent on the pH of the system.

acne = conditions: cited from earlier work
E. coli = assay: Kill of E. coli within 30 seconds of contact (inventor's earlier studies); type: cell-based
[2] = HONO form in ratios of >~2:1 acid/salt

Question: Which Mandelate % ([1]; pH 2.46) does the source give for `O=C(O)[C@H](O)c1ccccc1` [Mandelate] here?
Answer: 10%

Question: And the Mandelate % ([1]; pH 2.81)?
Answer: 20%

Question: What about the Mandelate % ([1]; pH 3.04) of the same molecule?
Answer: 30%

Question: And the Mandelate % ([1]; pH 3.23)?
Answer: 40%

Question: And the Mandelate % ([1]; pH 3.41)?
Answer: 50%

Question: And the Mandelate % ([1]; pH 3.59)?
Answer: 60%

Question: What about the Mandelate % ([1]; pH 3.78) of the same molecule?
Answer: 70%

Question: And the Mandelate % ([1]; pH 4.01)?
Answer: 80%

Question: For `O=NO` [Nitrite], which Nitrite % (pH 1.5) is on record?
Answer: 1.6%

Question: And the Nitrite % (pH 2.0)?
Answer: 4.8%

Question: What about the Nitrite % (pH 2.3) of the same molecule?
Answer: 9.1%

Question: And the Nitrite % (pH 2.6)?
Answer: 16.7%

Question: And the Nitrite % (pH 2.8)?
Answer: 24.0%

Question: What about the Nitrite % (pH 3.0) of the same molecule?
Answer: 33.3%

Question: What about the Nitrite % (pH 3.3) of the same molecule?
Answer: 50.0%

Question: What about the Nitrite % (pH 3.5) of the same molecule?
Answer: 61.2%

Question: And the Nitrite % (pH 4.0)?
Answer: 83.4%

Question: And the Nitrite % (pH 4.5)?
Answer: 94.0%

Question: And the Nitrite % (pH 5.0)?
Answer: 98.0%

Question: Which results are given for `O=C(O)CCCCCCCC(=O)O` [azelaic acid]?
Answer: Time for acne lesions to start disappearing (acne; after starting topical application): one to two months; Efficacy versus other topical Rx formulations (acne; benzoyl peroxide, tretinoin, antibiotics as comparators): works as well as other topical Rx formulations

Question: For `CC(O)C(=O)O` (centres unmarked) [lactic acid], which “E. coli killed relative to malic acid” value (E. coli) is on record?
Answer: 500 times

Question: Which results are given for `O=C(O)C(O)c1ccccc1` (centres unmarked) [mandelic acid]?
Answer: E. coli killed relative to malic acid (E. coli): 1.5 million; E. coli killed relative to lactic acid (E. coli; same conditions): 3000 times; Mandelic Acid % ([1]; pH 2.46): 90%; Mandelic Acid % ([1]; pH 2.81): 80%; Mandelic Acid % ([1]; pH 3.04): 70%; Mandelic Acid % ([1]; pH 3.23): 60%; Mandelic Acid % ([1]; pH 3.41): 50%; Mandelic Acid % ([1]; pH 3.59): 40%; Mandelic Acid % ([1]; pH 3.78): 30%; Mandelic Acid % ([1]; pH 4.01): 20%

Question: Which “longer-range stability of nitrous acid systems” value [2] does the source give for `O=NO` [nitrous acid] here?
Answer: significantly diminished

Question: And the “Nitrous Acid %” value (pH 1.5)?
Answer: 98.4%

Question: What about the “Nitrous Acid %” value (pH 2.0) of the same molecule?
Answer: 95.2%

Question: And the “Nitrous Acid %” value (pH 2.3)?
Answer: 90.9%

Question: What about the “Nitrous Acid %” value (pH 2.6) of the same molecule?
Answer: 83.3%

Question: What about the “Nitrous Acid %” value (pH 2.8) of the same molecule?
Answer: 76.0%

Question: What about the “Nitrous Acid %” value (pH 3.0) of the same molecule?
Answer: 66.7%

Question: What about the “Nitrous Acid %” value (pH 3.3) of the same molecule?
Answer: 50.0%

Question: What about the “Nitrous Acid %” value (pH 3.5) of the same molecule?
Answer: 38.8%

Question: What about the “Nitrous Acid %” value (pH 4.0) of the same molecule?
Answer: 16.6%

Question: What about the “Nitrous Acid %” value (pH 4.5) of the same molecule?
Answer: 6.0%

Question: What about the “Nitrous Acid %” value (pH 5.0) of the same molecule?
Answer: 2.0%
